Common to all, as to details: averaged IC50
For test [1], the target named is His-tagged recombinant human AXL cytoplasmic domain (Homo sapiens (Human), UniProt P30530). The test can be described thus: AXL Enzyme Assay (LanthaScreen Eu Kinase Binding, TR-FRET). The procedure, abridged: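 Compound displacement measured by TR-FRET after 60 min at 22 °C, using Eu-based LanthaScreen binding technology. Ratiometric emission converted to percent of control, fitted to a 4-parameter logistic curve, with IC50 at 50 POC.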
Chain of His-tagged recombinant human AXL cytoplasmic domain (P30530 473-894): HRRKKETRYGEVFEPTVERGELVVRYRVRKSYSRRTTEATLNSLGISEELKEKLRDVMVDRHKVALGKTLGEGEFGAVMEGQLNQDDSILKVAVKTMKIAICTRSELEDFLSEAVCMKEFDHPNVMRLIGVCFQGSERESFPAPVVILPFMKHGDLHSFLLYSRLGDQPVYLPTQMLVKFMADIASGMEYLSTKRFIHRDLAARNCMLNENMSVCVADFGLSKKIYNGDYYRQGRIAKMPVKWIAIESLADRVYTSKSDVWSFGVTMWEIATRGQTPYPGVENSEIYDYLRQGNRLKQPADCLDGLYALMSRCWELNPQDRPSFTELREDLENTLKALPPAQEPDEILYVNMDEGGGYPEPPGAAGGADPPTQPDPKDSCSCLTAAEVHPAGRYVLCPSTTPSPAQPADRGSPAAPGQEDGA
In general terms: TR-FRET usually uses a lanthanide donor and a delayed reading to cut background.

The target in test [2] is His-tagged recombinant human MER cytoplasmic domain (Homo sapiens (Human), UniProt Q12866). Description: MER Enzyme Assay (LanthaScreen Eu Kinase Binding, TR-FRET). A digest of the protocol:
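Percent of control, derived from ratiometric TR-FRET emission, was fitted to a 4-parameter logistic curve and IC50 taken at 50 POC. Binding was read after 60 min at 22 °C using Eu-based LanthaScreen technology and recombinant His-tagged MER cytoplasmic domain.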

The target in test [3] is GST-tagged recombinant human TYRO3 kinase domain (Homo sapiens (Human), UniProt Q06418). Description: TYRO3 Enzyme Assay (LanthaScreen Eu Kinase Binding, TR-FRET). A digest of the protocol: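 LanthaScreen Eu binding (tracer displacement) format read by TR-FRET after 60 min at 22 °C. Emission ratio converted to percent of control; IC50 taken where a 4-parameter logistic fit crosses 50 POC.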
Chain of GST-tagged recombinant human TYRO3 kinase domain (Q06418 518-790): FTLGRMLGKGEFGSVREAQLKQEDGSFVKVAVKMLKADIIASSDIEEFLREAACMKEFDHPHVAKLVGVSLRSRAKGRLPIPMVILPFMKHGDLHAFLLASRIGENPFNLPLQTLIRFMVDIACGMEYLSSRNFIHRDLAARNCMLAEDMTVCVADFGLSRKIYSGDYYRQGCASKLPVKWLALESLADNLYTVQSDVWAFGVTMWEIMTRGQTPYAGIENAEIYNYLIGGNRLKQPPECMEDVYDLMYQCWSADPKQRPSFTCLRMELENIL

Chain of His-tagged recombinant human MER cytoplasmic domain (Q12866 527-999): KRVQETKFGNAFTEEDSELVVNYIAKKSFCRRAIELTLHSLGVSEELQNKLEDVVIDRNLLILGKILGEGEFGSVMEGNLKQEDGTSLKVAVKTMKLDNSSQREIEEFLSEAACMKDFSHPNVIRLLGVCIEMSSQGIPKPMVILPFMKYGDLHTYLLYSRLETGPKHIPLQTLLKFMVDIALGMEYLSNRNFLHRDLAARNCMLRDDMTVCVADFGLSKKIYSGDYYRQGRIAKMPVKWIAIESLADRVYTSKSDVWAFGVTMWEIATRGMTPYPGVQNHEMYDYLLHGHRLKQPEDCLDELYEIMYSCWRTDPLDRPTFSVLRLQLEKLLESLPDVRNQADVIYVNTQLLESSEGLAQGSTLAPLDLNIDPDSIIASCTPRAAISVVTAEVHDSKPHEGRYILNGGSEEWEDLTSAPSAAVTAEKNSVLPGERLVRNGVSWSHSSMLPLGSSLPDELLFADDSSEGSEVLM

As for `CCNc1cc2c(cn1)c(N1CC[C@@H](N(C)C)C1)nn2[C@H]1CC[C@@H](Oc2nccc(C(F)(F)F)c2F)CC1` (stereo in doubt) [Example 334, 3-(®-3-(dimethylamino)pyrrolidin-1-yl)-N-ethyl-1-((1s,4S)-4-((3-fluoro-4-(trifluoromethyl)pyridin-2-yl)oxy)cyclohexyl)-1H-pyrazolo[4,3-c]pyridin-6-amine], the IC50 in test [1], in test [2] and in test [3] was under 10 nM in each case.
Turning to `CNc1cc2c(cn1)c(-c1ccc(C3(N4CCN(C)CC4)CC3)cc1)nn2[C@H]1CC[C@@H](Oc2ccc(=O)n(C)n2)CC1` [Example 53, 2-methyl-6-(((1s,4s)-4-(6-(methylamino)-3-(4-(1-(4-methylpiperazin-1-yl)cyclopropyl)phenyl)-1H-pyrazolo[4,3-c]pyridin-1-yl)cyclohexyl)oxy)pyridazin-3(2H)-one], the figures for the IC50 in test [1], in test [2] and in test [3] were under 10 nM, under 10 nM and 100 to 1000 nM, respectively.
With `Cn1cc(-c2nn([C@H]3CC[C@@H](Oc4ccc(=O)n(C)n4)CC3)c3cc(N)ncc23)cn1` [Example 75, 6-(((1s,4s)-4-(6-amino-3-(1-methyl-1H-pyrazol-4-yl)-1H-pyrazolo[4,3-c]pyridin-1-yl)cyclohexyl)oxy)-2-methylpyridazin-3(2H)-one], the IC50 in test [1], in test [2] and in test [3] was 1000 to 10000 nM each time.
Turning to `CNc1cc2c(cn1)c(-c1ccc(CN3CCN(CCO)CC3)cc1)nn2[C@H]1CC[C@@H](Oc2ccc(=O)n(C)n2)CC1` [Example 78, 6-(((1s,4s)-4-(3-(4-((4-(2-hydroxyethyl)piperazin-1-yl)methyl)phenyl)-6-(methylamino)-1H-pyrazolo[4,3-c]pyridin-1-yl)cyclohexyl)oxy)-2-methylpyridazin-3(2H)-one], the IC50 (as a rule, the concentration that inhibits the measured activity by half) is under 10 nM in test [1], under 10 nM in test [2] and 100 to 1000 nM in test [3].
As for `CCNc1cc2c(cn1)c(-c1ncco1)nn2[C@H]1CC[C@@H](Oc2ccc(=O)n(C)n2)CC1` [Example 81, 6-(((1s,4s)-4-(6-(ethylamino)-3-(oxazol-2-yl)-1H-pyrazolo[4,3-c]pyridin-1-yl)cyclohexyl)oxy)-2-methylpyridazin-3(2H)-one bis(2,2,2-trifluoroacetate)], the IC50 in test [1], in test [2] and in test [3] was 1000 to 10000 nM in each case.
On to `CNc1cc2c(cn1)c(-c1cnn(C)c1)nn2[C@H]1CC[C@@H](Oc2ccc(=O)[nH]c2C(F)(F)F)CC1` [Example 105, 5-(((1s,4s)-4-(3-(1-methyl-1H-pyrazol-4-yl)-6-(methylamino)-1H-pyrazolo[4,3-c]pyridin-1-yl)cyclohexyl)oxy)-6-(trifluoromethyl)pyridin-2(1H)-one], for which the IC50 in test [1], in test [2] and in test [3] was under 10 nM in each case.
With `CCn1c(O[C@H]2CC[C@@H](n3nc(-c4cnn(C)c4)c4cnc(NC)cc43)CC2)cccc1=O` [Example 111, 1-ethyl-6-(((1s,4s)-4-(3-(1-methyl-1H-pyrazol-4-yl)-6-(methylamino)-1H-pyrazolo[4,3-c]pyridin-1-yl)cyclohexyl)oxy)pyridin-2(1H)-one], the IC50 in test [1] is under 10 nM; in test [2], under 10 nM; in test [3], 10 to 100 nM.
Regarding `CNc1cc2c(cn1)c(-c1cnn(C)c1)nn2[C@H]1CC[C@@H](Oc2cccnc2C(F)(F)F)CC1` [Example 137, N-methyl-3-(1-methyl-1H-pyrazol-4-yl)-1-((1s,4s)-4-((2-(trifluoromethyl)pyridin-3-yl)oxy)cyclohexyl)-1H-pyrazolo[4,3-c]pyridin-6-amine], the IC50 in test [1], in test [2] and in test [3] was under 10 nM each time.
For `CNc1cc2c(cn1)c(-c1cnn(C)c1)nn2[C@H]1CC[C@@H](Oc2cccnc2C#N)CC1` [Example 140, 3-(((1s,4s)-4-(3-(1-methyl-1H-pyrazol-4-yl)-6-(methylamino)-1H-pyrazolo[4,3-c]pyridin-1-yl)cyclohexyl)oxy)picolinonitrile], the IC50 in test [1], in test [2] and in test [3] was under 10 nM throughout.
As to `CNc1cc2c(cn1)c(-c1cnn(C(C)(C)C#N)c1)nn2[C@H]1CC[C@@H](Oc2cccnc2C(F)(F)F)CC1` [Example 160, 2-methyl-2-(4-(6-(methylamino)-1-((1s,4s)-4-((2-(trifluoromethyl)pyridin-3-yl)oxy)cyclohexyl)-1H-pyrazolo[4,3-c]pyridin-3-yl)-1H-pyrazol-1-yl)propanenitrile], the IC50 in test [1], in test [2] and in test [3] was under 10 nM each time.
As for `CNc1cc2c(cn1)c(-c1cnn(C)c1)nn2[C@H]1CC[C@@H](Oc2cn(C)nc2C(F)(F)F)CC1` [Example 162, N-methyl-3-(1-methyl-1H-pyrazol-4-yl)-1-((1s,4s)-4-((1-methyl-3-(trifluoromethyl)-1H-pyrazol-4-yl)oxy)cyclohexyl)-1H-pyrazolo[4,3-c]pyridin-6-amine], the IC50 in test [1], in test [2] and in test [3] was under 10 nM throughout.
In the case of `CNc1cc2c(cn1)c(-c1cnn(C(C)(C)C#N)c1)nn2[C@H]1CC[C@@H](Oc2cn(C)nc2C(F)(F)F)CC1` [Example 163, 2-methyl-2-(4-(1-((1s,4s)-4-((1-methyl-3-(trifluoromethyl)-1H-pyrazol-4-yl)oxy)cyclohexyl)-6-(methylamino)-lH-pyrazolo[4,3-c]pyridin-3-yl)-1H-pyrazol-1-yl)propanenitrile], the IC50 in test [1], in test [2] and in test [3] was under 10 nM in each case.
Regarding `CCNc1cc2c(cn1)c(-c1cnn(C(C)(C)C#N)c1)nn2[C@H]1CC[C@@H](Oc2cccnc2C(F)(F)F)CC1` [Example 164, 2-(4-(6-(ethylamino)-1-((1s,4s)-4-((2-(trifluoromethyl)pyridin-3-yl)oxy)cyclohexyl)-1H-pyrazolo[4,3-c]pyridin-3-yl)-1H-pyrazol-1-yl)-2-methylpropanenitrile], the IC50 in test [1], in test [2] and in test [3] was under 10 nM each time.
For `CNc1cc2c(cn1)c(-c1cnn(C)c1)nn2[C@H]1CC[C@@H](Oc2cccnc2C(C)C)CC1` [Example 165, 1-((1 s,4s)-4-((2-isopropylpyridin-3-yl)oxy)cyclohexyl)-N-methyl(1-methyl-1H-pyrazol-4-yl)-1H-pyrazolo[4,3-c]pyridin-6-amine], the figures for the IC50 in test [1], in test [2] and in test [3] were under 10 nM, under 10 nM and 10 to 100 nM, respectively.
With `CNc1cc2c(cn1)c(-c1cnn(C)c1)nn2[C@H]1CC[C@@H](Oc2nccnc2C(F)(F)F)CC1` [Example 171, N-methyl-3-(1-methyl-1H-pyrazol-4-yl)-1-((1s,4s)-4-((3-(trifluoromethyl)pyrazin-2-yl)oxy)cyclohexyl)-1H-pyrazolo[4,3-c]pyridin-6-amine], the IC50 in test [1], in test [2] and in test [3] was under 10 nM each time.
Take `CNc1cc2c(cn1)c(-c1cnn(C)c1)nn2[C@H]1CC[C@@H](Oc2nccc(C(F)(F)F)c2F)CC1` [Example 173, 1-((1s,4s)-4-((3-fluoro-4-(trifluoromethyl)pyridin-2-yl)oxy)cyclohexyl)-N-methyl-3-(1-methyl-1H-pyrazol-4-yl)-1H-pyrazolo[4,3-c]pyridin-6-amine]: the results for the IC50 in test [1], in test [2] and in test [3] were under 10 nM, under 10 nM and 10 to 100 nM, respectively.

Values taken from patent US11247990B1, “Bicyclic fused pyridine compounds as inhibitors of TAM kinases” (ARRAY BIOPHARMA INC., priority 2017, dated 2022).
